# Measured values taken from US12398120B2, “Substituted hydantoinamides as ADAMTS7 antagonists” (BAYER AKTIENGESELLSCHAFT, priority 2019, dated 2025).
# Target: ADAMTS4 (Homo sapiens (Human), UniProt O75173)
# Assay: Selectivity assay for ADAMTS-7 modulators: ADAMTS4 (FRET substrate)
# Type: biochemical
# Details: ADAMTS4 (R&D 4307-AD) 50 nM, substrate Dabcyl-EEVKAKVQPY-Glu(Edans)-NH2 1 μM, 120 min, 32° C.
# Summary of the method: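 Human ADAMTS4 with compound in DMSO, or DMSO control; reaction started by adding FRET substrate in reaction buffer. Fluorescence increase measured at substrate-specific wavelengths. IC50 derived from % inhibition of enzyme activity versus compound concentration.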
# Chain of ADAMTS4 (O75173 213-685): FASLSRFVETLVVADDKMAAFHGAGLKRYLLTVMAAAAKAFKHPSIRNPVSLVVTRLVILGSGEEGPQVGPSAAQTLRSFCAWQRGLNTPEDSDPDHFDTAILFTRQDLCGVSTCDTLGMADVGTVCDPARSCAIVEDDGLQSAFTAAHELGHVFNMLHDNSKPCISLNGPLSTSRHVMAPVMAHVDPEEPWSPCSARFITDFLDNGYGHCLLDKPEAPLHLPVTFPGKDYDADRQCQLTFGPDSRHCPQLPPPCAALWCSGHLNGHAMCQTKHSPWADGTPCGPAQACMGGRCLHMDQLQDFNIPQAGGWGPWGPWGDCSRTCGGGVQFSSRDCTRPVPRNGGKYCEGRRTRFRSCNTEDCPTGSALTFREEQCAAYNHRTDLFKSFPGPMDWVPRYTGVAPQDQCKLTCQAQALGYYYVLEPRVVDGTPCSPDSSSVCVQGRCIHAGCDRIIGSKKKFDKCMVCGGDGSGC
row,IC50,SMILES
1,> 50 µM,"O=C1NC(=O)C(CNC(=O)c2ccc(F)cc2-c2ccc(C(F)(F)F)cc2)(C23CC(F)(C2)C3)N1 (racemic) [Example 293, Rac-5-Fluoro-N-{[4-(3-Fluorobicyclo[1.1.1]Pentan-1-Yl)-2,5-Dioxoimidazolidin-4-Yl]Methyl}-4′-(Trifluoromethyl)[Biphenyl]-2-Carboxamide]"
2,> 50 µM,"O=C1NC(=O)C(CNC(=O)c2ccc(F)c(F)c2-c2ccc(C(F)(F)F)cc2)(C23CC(F)(C2)C3)N1 (racemic) [Example 295, Rac-5,6-Difluoro-N-{[4-(3-Fluorobicyclo[1.1.1]Pentan-1-Yl)-2,5-Dioxoimidazolidin-4-Yl]Methyl}-4′-(Trifluoromethyl)[Biphenyl]-2-Carboxamide]"
3,19 µM,"O=C1NC(=O)C(CNC(=O)c2cccc(F)c2-c2ccc(C(F)(F)F)cc2)(C2(F)CC2)N1 (racemic) [Example 299, Rac-6-Fluoro-N-{[4-(1-Fluorocyclopropyl)-2,5-Dioxoimidazolidin-4-Yl]Methyl}-4′-(Trifluoromethyl)[Biphenyl]-2-Carboxamide]"
4,38 µM,"Cc1sc(C(F)(F)F)nc1C1(CNC(=O)c2ccc(F)cc2-c2ccc(C(F)(F)F)cc2)NC(=O)NC1=O (racemic) [Example 303, Rac-5-Fluoro-N-({4-[5-Methyl-2-(Trifluoromethyl)-1,3-Thiazol-4-Yl]-2,5-Dioxoimidazolidin-4-Yl}Methyl)-4′-(Trifluoromethyl)[Biphenyl]-2-Carboxamide]"
5,3.3 µM,"Cc1c(C2(CNC(=O)c3ccc(F)cc3-c3ccc(C(F)(F)F)cc3)NC(=O)NC2=O)ncn1C (racemic) [Example 304, Rac-N-{[4-(1,5-Dimethyl-1H-Imidazol-4-Yl)-2,5-Dioxoimidazolidin-4-Yl]Methyl}-5-Fluoro-4′-(Trifluoromethyl)[Biphenyl]-2-Carboxamide]"
6,> 50 µM,"Cc1scnc1C1(CNC(=O)c2ccccc2-c2ccc(C(F)(F)F)cc2)NC(=O)NC1=O (single isomer, unassigned) [Example 2, Ent-N-{[4-(5-Methyl-1,3-Thiazol-4-Yl)-2,5-Dioxoimidazolidin-4-Yl]Methyl}-4′-(Trifluoromethyl)[Biphenyl]-2-Carboxamide]"
7,4.8 µM,"Cc1scnc1C1(CNC(=O)c2ccccc2-c2ccc(C(F)(F)F)cc2)NC(=O)NC1=O (single isomer, unassigned) [Example 3, Ent-N-{[4-(5-Methyl-1,3-Thiazol-4-Yl)-2,5-Dioxoimidazolidin-4-Yl]Methyl}-4′-(Trifluoromethyl)[Biphenyl]-2-Carboxamide]"
8,13 µM,"Cc1ccc(C(=O)NC[C@@]2(C3CC3)NC(=O)NC2=O)c(-c2ccc(C3CC3(F)F)cc2)c1 (single isomer, unassigned) [Example 137]"
9,4.9 µM,"Cc1ccc(C(=O)NC[C@@]2(C3CC3)NC(=O)NC2=O)c(-c2ccc(C3CC3(F)F)cc2)c1 (single isomer, unassigned) [Example 138]"
10,4.8 µM,"Cc1ncsc1C1(CNC(=O)c2ccccc2-c2ccc(Cl)cc2)NC(=O)NC1=O (single isomer, unassigned; ent-4) [Example 9, Ent-4′-Chloro-N-{[4-(4-Methyl-1,3-Thiazol-5-Yl)-2,5-Dioxoimidazolidin-4-Yl]Methyl}[Biphenyl]-2-Carboxamide]"
11,5.9 µM,"Cc1ncsc1C1(CNC(=O)c2cc(F)ccc2-c2ccc(C(F)(F)F)cc2)NC(=O)NC1=O (single isomer, unassigned; ent-4) [Example 11, Ent-4-Fluoro-N-{[4-(4-Methyl-1,3-Thiazol-5-Yl)-2,5-Dioxoimidazolidin-4-Yl]Methyl}-4′-(Trifluoromethyl)[Biphenyl]-2-Carboxamide]"
12,7.1 µM,"Cc1scnc1C1(CNC(=O)c2cc(F)c(F)cc2-c2ccc(C(F)(F)F)cc2)NC(=O)NC1=O (single isomer, unassigned; ent-4) [Example 17, Ent-4,5-Difluoro-N-{[4-(5-Methyl-1,3-Thiazol-4-Yl)-2,5-Dioxoimidazolidin-4-Yl]Methyl}-4′-(Trifluoromethyl)[Biphenyl]-2-Carboxamide]"
13,41 µM,"Cc1scnc1C1(CNC(=O)c2cc(Cl)ccc2-c2ccc(C(F)(F)F)cc2)NC(=O)NC1=O (single isomer, unassigned; ent-4) [Example 18, Ent-4-Chloro-N-{[4-(5-Methyl-1,3-Thiazol-4-Yl)-2,5-Dioxoimidazolidin-4-Yl]Methyl}-4′-(Trifluoromethyl)[Biphenyl]-2-Carboxamide]"
14,1.9 µM,"Cc1ccc(-c2ccccc2C(=O)NCC2(c3nccn3C)NC(=O)NC2=O)cc1 (single isomer, unassigned; ent-4) [Example 146, Ent-4′-Methyl-N-{[4-(1-Methyl-1H-Imidazol-2-Yl)-2,5-Dioxoimidazolidin-4-Yl]Methyl}[Biphenyl]-2-Carboxamide]"
15,0.705 µM,"Cc1ccc(-c2ccc(F)cc2C(=O)NCC2(c3nccn3C)NC(=O)NC2=O)cc1 (single isomer, unassigned; ent-4) [Example 152, Ent-4-Fluoro-4′-Methyl-N-{[4-(1-Methyl-1H-Imidazol-2-Yl)-2,5-Dioxoimidazolidin-4-Yl]Methyl}[Biphenyl]-2-Carboxamide]"
16,5.9 µM,"Cn1ccnc1C1(CNC(=O)c2ccccc2-c2ccc(Cl)cc2)NC(=O)NC1=O (single isomer, unassigned; ent-4) [Example 155, Ent-4′-Chloro-N-{[4-(1-Methyl-1H-Imidazol-2-Yl)-2,5-Dioxoimidazolidin-4-Yl]Methyl}[Biphenyl]-2-Carboxamide]"

# Further lines, the compound ahead of its results:
row,SMILES,IC50
1,"Cc1cc(C2(CNC(=O)c3ccc(F)c(F)c3-c3ccc(C(F)(F)F)cc3)NC(=O)NC2=O)nn1C (racemic) [Example 305, Rac-N-{[4-(1,5-Dimethyl-1H-Pyrazol-3-Yl)-2,5-Dioxoimidazolidin-4-Yl]Methyl}-5,6-Difluoro-4′-(Trifluoromethyl)[Biphenyl]-2-Carboxamide]",28 µM
2,"Cc1nscc1C1(CNC(=O)c2ccc(F)c(F)c2-c2ccc(C(F)(F)F)cc2)NC(=O)NC1=O (racemic) [Example 306, Rac-5,6-Difluoro-N-{[4-(3-Methyl-1,2-Thiazol-4-Yl)-2,5-Dioxoimidazolidin-4-Yl]Methyl}-4′-(Trifluoromethyl)[Biphenyl]-2-Carboxamide]",16 µM
3,"Cn1ccc(C2(CNC(=O)c3ccc(F)c(F)c3-c3ccc(C(F)(F)F)cc3)NC(=O)NC2=O)n1 (racemic) [Example 307, Rac-5,6-Difluoro-N-{[4-(1-Methyl-1H-Pyrazol-3-Yl)-2,5-Dioxoimidazolidin-4-Yl]Methyl}-4′-(Trifluoromethyl)[Biphenyl]-2-Carboxamide]",23 µM
4,"O=C1NC(=O)C(CNC(=O)c2ccc(F)c(F)c2-c2ccc(C(F)(F)F)cc2)(c2ccnn2-c2ccccc2)N1 (racemic) [Example 315, Rac-N-{[2,5-Dioxo-4-(1-Phenyl-1H-Pyrazol-5-Yl)Imidazolidin-4-Yl]Methyl}-5,6-Difluoro-4′-(Trifluoromethyl)[Biphenyl]-2-Carboxamide]",1.3 µM
5,"Cc1c(C2(CNC(=O)c3ccc(F)c(F)c3-c3ccc(C(F)(F)F)cc3)NC(=O)NC2=O)cnn1C (racemic) [Example 316, Rac-N-{[4-(1,5-Dimethyl-1H-Pyrazol-4-Yl)-2,5-Dioxoimidazolidin-4-Yl]Methyl}-5,6-Difluoro-4′-(Trifluoromethyl)[Biphenyl]-2-Carboxamide]",12 µM
6,"Cn1ccnc1C1(CNC(=O)c2c(F)cccc2-c2ccc(C(F)(F)F)cc2)NC(=O)NC1=O (single isomer, unassigned; ent-3) [Example 159, Ent-3-Fluoro-N-{[4-(1-Methyl-1H-Imidazol-2-Yl)-2,5-Dioxoimidazolidin-4-Yl]Methyl}-4′-(Trifluoromethyl)[Biphenyl]-2-Carboxamide]",3.75 µM
7,"Cn1nccc1C1(CNC(=O)c2c(F)cccc2-c2ccc(C(F)(F)F)cc2)NC(=O)NC1=O (single isomer, unassigned; ent-3) [Example 186, Ent-3-Fluoro-N-{[4-(1-Methyl-1H-Pyrazol-5-Yl)-2,5-Dioxoimidazolidin-4-Yl]Methyl}-4′-(Trifluoromethyl)[Biphenyl]-2-Carboxamide]",24 µM
8,"Cn1nccc1C1(CNC(=O)c2c(Cl)cccc2-c2ccc(Cl)cc2)NC(=O)NC1=O (single isomer, unassigned; ent-3) [Example 189, Ent-3,4′-Dichloro-N-{[4-(1-Methyl-1H-Pyrazol-5-Yl)-2,5-Dioxoimidazolidin-4-Yl]Methyl}[Biphenyl]-2-Carboxamide]",3.65 µM
9,"Cn1nccc1C1(CNC(=O)c2ccccc2-c2ccc(Cl)c(Cl)c2)NC(=O)NC1=O (single isomer, unassigned; ent-3) [Example 311, Ent-3′,4′-Dichloro-N-{[4-(1-Methyl-1H-Pyrazol-5-Yl)-2,5-Dioxoimidazolidin-4-Yl]Methyl}[Biphenyl]-2-Carboxamide]",11 µM
10,"Cc1ccc(-c2c(C)cccc2C(=O)NCC2(c3nccn3C)NC(=O)NC2=O)cc1 (single isomer, unassigned; ent-4) [Example 134, Ent-4′,6-Dimethyl-N-{[4-(1-Methyl-1H-Imidazol-2-Yl)-2,5-Dioxoimidazoidin-4-Yl]Methyl}[1,1′-Biphenyl]-2-Carboxamide]",1.4 µM
11,"Cn1ccnc1C1(CNC(=O)c2cc(F)ccc2-c2ccc(C(F)(F)F)cc2)NC(=O)NC1=O (single isomer, unassigned; ent-4) [Example 149, Ent-4-Fluoro-N-{[4-(1-Methyl-1H-Imidazol-2-Yl)-2,5-Dioxoimidazolidin-4-Yl]Methyl}-4′-(Trifluoromethyl)[Biphenyl]-2-Carboxamide]",1.15 µM
12,"Cn1ccnc1C1(CNC(=O)c2cc(F)c(F)cc2-c2ccc(C(F)(F)F)cc2)NC(=O)NC1=O (single isomer, unassigned; ent-4) [Example 154, Ent-4,5-Difluoro-N-{[4-(1-Methyl-1H-Imidazol-2-Yl)-2,5-Dioxoimidazolidin-4-Yl]Methyl}-4′-(Trifluoromethyl)[Biphenyl]-2-Carboxamide]",3.95 µM
